# Results published in PubChem BioAssay AID1963428 (Molecular Pharmacology Branch, DTP, NCI, 2024).
# Tested on: 171881-019-R-J1-PDC complex spheroid growth, % test/control
# Test: Anticancer human tumor 171881-019-R-J1-PDC patient-derived invasive breast carcinoma cell line growth inhibition [Asc]
# Conditions: for IC50: curve of first compound; for viability, T/C: stronger effect = lower value
# In short: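 Stromal components (HUVEC and hMSC) are co-assembled with the cancer cells into multicellular spheroids. Drugs are then added singly or paired, at concentrations falling by half-log increments from a clinically achievable maximum, capped at 10 microM without known Cmax.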
# [1] = second compound 0.03 µM, first compound 0.0316 µM
# [2] = second compound 0.03 µM, first compound 0.1 µM
# [3] = second compound 0.03 µM, first compound 0.316 µM
# [4] = second compound 0.03 µM, first compound 1 µM
# [5] = second compound 0.03 µM, first compound 3.16 µM
# [6] = second compound 0.03 µM, first compound 10 µM
# [7] = second compound 0.0949 µM, first compound 0.0316 µM
# [8] = second compound 0.0949 µM, first compound 0.1 µM
# [9] = second compound 0.0949 µM, first compound 0.316 µM
# [10] = second compound 0.0949 µM, first compound 1 µM
# [11] = second compound 0.0949 µM, first compound 3.16 µM
# [12] = second compound 0.0949 µM, first compound 10 µM
# [13] = second compound 0.3 µM, first compound 0.0316 µM
# [14] = second compound 0.3 µM, first compound 0.1 µM
# [15] = second compound 0.3 µM, first compound 0.316 µM
# [16] = second compound 0.3 µM, first compound 1 µM
# [17] = second compound 0.3 µM, first compound 3.16 µM
# [18] = second compound 0.3 µM, first compound 10 µM
# [19] = second compound 0.949 µM, first compound 0.0316 µM
# [20] = second compound 0.949 µM, first compound 0.1 µM
# [21] = second compound 0.949 µM, first compound 0.316 µM
# [22] = second compound 0.949 µM, first compound 1 µM
# [23] = second compound 0.949 µM, first compound 3.16 µM
# [24] = second compound 0.949 µM, first compound 10 µM
# [25] = second compound 3 µM, first compound 0.0316 µM
# [26] = second compound 3 µM, first compound 0.1 µM
# [27] = second compound 3 µM, first compound 0.316 µM
# [28] = second compound 3 µM, first compound 1 µM
# [29] = second compound 3 µM, first compound 3.16 µM
# [30] = second compound 3 µM, first compound 10 µM
# [31] = second compound 0.03 µM, first compound 0.00316 µM
# [32] = second compound 0.03 µM, first compound 0.01 µM
# [33] = second compound 0.0949 µM, first compound 0.00316 µM
# [34] = second compound 0.0949 µM, first compound 0.01 µM
# [35] = second compound 0.3 µM, first compound 0.00316 µM
# [36] = second compound 0.3 µM, first compound 0.01 µM
# [37] = second compound 0.949 µM, first compound 0.00316 µM
# [38] = second compound 0.949 µM, first compound 0.01 µM
# [39] = second compound 3 µM, first compound 0.00316 µM
# [40] = second compound 3 µM, first compound 0.01 µM
# 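Throughout, for viability, T/C: spheroids exposed to compounds for 7 days.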
SMILES,IC50 (second compound 0.03 µM) [µM],IC50 (second compound 0.0949 µM) [µM],IC50 (second compound 0.3 µM) [µM],IC50 (second compound 0.949 µM) [µM],IC50 (second compound 3 µM) [µM],"viability, T/C [1] [%]","viability, T/C [2] [%]","viability, T/C [3] [%]","viability, T/C [4] [%]","viability, T/C [7] [%]","viability, T/C [8] [%]","viability, T/C [9] [%]","viability, T/C [10] [%]","viability, T/C [13] [%]","viability, T/C [14] [%]","viability, T/C [15] [%]","viability, T/C [16] [%]","viability, T/C [19] [%]","viability, T/C [20] [%]","viability, T/C [21] [%]",other results
C#Cc1c(F)ccc2cc(O)cc(-c3ncc4c(N5CC6CCC(C5)N6)nc(OCC56CCCN5CC(F)C6)nc4c3F)c12 (stereo not given) + CCN1C(C(=O)NC23CCC(C(=O)O)(CC2)CC3)C(c2cccc(Cl)c2F)C2(C(=O)Nc3cc(Cl)ccc32)C12CCCCC2,> 10,> 10,> 10,> 10,> 10,120,116,136,192,117,117,158,208,120,127,127,204,116,123,146,"viability, T/C [5]: 204%; viability, T/C [6]: 170%; viability, T/C [11]: 241%; viability, T/C [12]: 211%; viability, T/C [17]: 213%; viability, T/C [18]: 188%; viability, T/C [22]: 229%; viability, T/C [23]: 210%; viability, T/C [24]: 174%; viability, T/C [25]: 125%; viability, T/C [26]: 156%; viability, T/C [27]: 216%; viability, T/C [28]: 218%; viability, T/C [29]: 172%; viability, T/C [30]: 154%"
C=CC(=O)N1CCN(c2nc(=O)n(-c3c(C)ccnc3C(C)C)c3nc(-c4c(O)cccc4F)c(F)cc23)C(C)C1 (stereo not given) + CCN1C(C(=O)NC23CCC(C(=O)O)(CC2)CC3)C(c2cccc(Cl)c2F)C2(C(=O)Nc3cc(Cl)ccc32)C12CCCCC2,> 10,> 10,> 10,> 10,> 10,103,102,100,96.8,93.5,91.7,107,112,116,105,105,109,96.5,104,116,"viability, T/C [5]: 102%; viability, T/C [6]: 103%; viability, T/C [11]: 94.4%; viability, T/C [12]: 109%; viability, T/C [17]: 107%; viability, T/C [18]: 90.7%; viability, T/C [22]: 106%; viability, T/C [23]: 106%; viability, T/C [24]: 116%; viability, T/C [25]: 94.2%; viability, T/C [26]: 112%; viability, T/C [27]: 103%; viability, T/C [28]: 97%; viability, T/C [29]: 99.8%; viability, T/C [30]: 107%"
CNC(C)C(=O)NC1CN(S(=O)(=O)c2cccc(S(=O)(=O)N3CCC4CCC(C(=O)NC(c5ccccc5)c5ccccc5)N4C(=O)C(NC(=O)C(C)NC)C3)c2)CCC2CCC(C(=O)NC(c3ccccc3)c3ccccc3)N2C1=O (stereo not given) + CCN1C(C(=O)NC23CCC(C(=O)O)(CC2)CC3)C(c2cccc(Cl)c2F)C2(C(=O)Nc3cc(Cl)ccc32)C12CCCCC2,> 1,> 1,> 1,> 1,> 1,99.1,93.3,93.7,93,94.5,91.7,109,90.2,103,109,93.5,100,113,88.5,109,"viability, T/C [31]: 91.6%; viability, T/C [32]: 103%; viability, T/C [33]: 118%; viability, T/C [34]: 96.8%; viability, T/C [35]: 113%; viability, T/C [36]: 103%; viability, T/C [37]: 109%; viability, T/C [38]: 107%; viability, T/C [22]: 102%; viability, T/C [39]: 102%; viability, T/C [40]: 115%; viability, T/C [25]: 106%; viability, T/C [26]: 90.3%; viability, T/C [27]: 100%; viability, T/C [28]: 96%"

# Further lines, with some results ahead:
IC50 (second compound 0.03 µM) [µM],IC50 (second compound 0.0949 µM) [µM],IC50 (second compound 0.3 µM) [µM],IC50 (second compound 0.949 µM) [µM],IC50 (second compound 3 µM) [µM],SMILES,"viability, T/C [1] [%]","viability, T/C [2] [%]","viability, T/C [3] [%]","viability, T/C [4] [%]","viability, T/C [7] [%]","viability, T/C [8] [%]","viability, T/C [9] [%]","viability, T/C [10] [%]","viability, T/C [13] [%]","viability, T/C [14] [%]","viability, T/C [15] [%]","viability, T/C [16] [%]","viability, T/C [19] [%]","viability, T/C [20] [%]","viability, T/C [21] [%]",other results
5.96,5.86,6.18,5.79,6,C=C(F)C(=O)N1CCN(c2nc(OCC3CCCN3C)nc3c2CCN(c2cccc4cccc(Cl)c24)C3)CC1CC#N (stereo not given) + CCN1C(C(=O)NC23CCC(C(=O)O)(CC2)CC3)C(c2cccc(Cl)c2F)C2(C(=O)Nc3cc(Cl)ccc32)C12CCCCC2,107,105,104,110,99.9,107,112,108,117,105,112,120,118,120,108,"viability, T/C [5]: 122%; viability, T/C [6]: 1.23%; viability, T/C [11]: 110%; viability, T/C [12]: 0.23%; viability, T/C [17]: 141%; viability, T/C [18]: 0.58%; viability, T/C [22]: 111%; viability, T/C [23]: 104%; viability, T/C [24]: 0.88%; viability, T/C [25]: 108%; viability, T/C [26]: 103%; viability, T/C [27]: 107%; viability, T/C [28]: 113%; viability, T/C [29]: 128%; viability, T/C [30]: 0.37%"
0.0357,0.0367,0.0361,0.0331,0.0297,COc1c(OCCCN2CCOCC2)ccc2c3n(c(=NC(=O)c4cnc(N)nc4)nc12)CCN3 + CCN1C(C(=O)NC23CCC(C(=O)O)(CC2)CC3)C(c2cccc(Cl)c2F)C2(C(=O)Nc3cc(Cl)ccc32)C12CCCCC2,48.1,25.7,3.58,1.48,55,13.6,3.64,1.16,53.8,14.6,3.71,0.99,50.9,12.8,3.5,"viability, T/C [31]: 158%; viability, T/C [32]: 118%; viability, T/C [33]: 182%; viability, T/C [34]: 141%; viability, T/C [35]: 143%; viability, T/C [36]: 133%; viability, T/C [37]: 159%; viability, T/C [38]: 126%; viability, T/C [22]: 1.21%; viability, T/C [39]: 171%; viability, T/C [40]: 122%; viability, T/C [25]: 46.1%; viability, T/C [26]: 9.69%; viability, T/C [27]: 2.19%; viability, T/C [28]: 1.28%"
